Measured values taken from US20260125360A1, “HERBICIDAL IMIDAZOLE COMPOUNDS” (SYNGENTA CROP PROTECTION AG, priority 2022, published 2026).

Legend:
Assay type in all cases: in vivo
Settings in all cases: 250 g/ha, evaluated after 13 days
[1] = test system: Echinochloa crus-galli (ECHCG); experiment: Post-emergence herbicide glasshouse test
Procedure: (§1) Seeds of a variety of test species are sown in standard soil in pots Amaranthus palmeri (AMAPA), Amaranthus retoflexus (AMARE), Echinochloa crus-galli (ECHCG), Ipomoea hederacea (IPOHE)). After cultivation for one day (pre-emergence) or after 8 days cultivation (post-emergence) under controlled conditions in a glasshouse (at 24/16° C., day/night; 14 hours light; 65% humidity), the plants are sprayed with an aqueous spray solution derived from the formulation of the technical active ingredient in acetone/water (50:50) solution containing 0.5% Tween 20 (polyoxyethelyene sorbitan monolaurate, CAS RN 9005-64-5). Compounds are applied at 250 g/ha unless otherwise stated. The test plants are then grown in a glasshouse under controlled conditions in a glasshouse (at 24/16° C., day/night; 14 hours light; 65% humidity) and watered twice daily. After 13 days for pre and post-emergence, the test is evaluated for the percentage damage caused to the plant. The biological activities are shown in the following table on a five-point scale (5=81-100%; 4=61-80%; 3=41-60%; 2=21-40%; 1=0-20%).

[2] = test system: Amaranthus retoflexus (AMARE); experiment: Post-emergence herbicide glasshouse test
Procedure: as §1

[3] = test system: Amaranthus palmeri (AMAPA); experiment: Post-emergence herbicide glasshouse test
Procedure: as §1

[4] = test system: Ipomoea hederacea (IPOHE); experiment: Post-emergence herbicide glasshouse test
Procedure: as §1

[5] = test system: Echinochloa crus-galli (ECHCG); experiment: Pre-emergence herbicide glasshouse test
Procedure: as §1

[6] = test system: Amaranthus retoflexus (AMARE); experiment: Pre-emergence herbicide glasshouse test
Procedure: as §1

[7] = test system: Amaranthus palmeri (AMAPA); experiment: Pre-emergence herbicide glasshouse test
Procedure: as §1

[8] = test system: Ipomoea hederacea (IPOHE); experiment: Pre-emergence herbicide glasshouse test
Procedure: as §1

| SMILES | percentage damage caused to the plant, ECHCG (five-point scale) [1] | percentage damage caused to the plant, AMARE (five-point scale) [2] | percentage damage caused to the plant, AMAPA (five-point scale) [3] | percentage damage caused to the plant, IPOHE (five-point scale) [4] | percentage damage caused to the plant, ECHCG (five-point scale) [5] | percentage damage caused to the plant, AMARE (five-point scale) [6] | percentage damage caused to the plant, AMAPA (five-point scale) [7] | percentage damage caused to the plant, IPOHE (five-point scale) [8] |
| --- | --- | --- | --- | --- | --- | --- | --- | --- |
| Cn1ccc(Cn2cc(C(F)(F)F)nc2-c2cnc(Cl)c(F)c2)n1 [Compound 1.026] | 3 (3=41-60%) | 4 (4=61-80%) | 4 (4=61-80%) | 4 (4=61-80%) | 4 (4=61-80%) | 5 (5=81-100%) | 5 (5=81-100%) | 5 (5=81-100%) |
| Cc1cc(Cn2cc(C(F)(F)F)nc2-c2cnc(Cl)c(F)c2)ns1 [Compound 1.027] | 4 (4=61-80%) | 4 (4=61-80%) | 4 (4=61-80%) | 4 (4=61-80%) | 3 (3=41-60%) | 5 (5=81-100%) | 5 (5=81-100%) | 4 (4=61-80%) |
| Fc1cc(-c2nc(C(F)(F)F)cn2Cc2cc(C3CC3)on2)cnc1Cl [Compound 1.028] | 1 (1=0-20%) | 4 (4=61-80%) | 3 (3=41-60%) | 1 (1=0-20%) | 1 (1=0-20%) | 5 (5=81-100%) | 5 (5=81-100%) | 4 (4=61-80%) |
| Cc1cnc(Cn2cc(C(F)(F)F)nc2-c2ccc(Cl)nc2)s1 [Compound 1.034] | 5 (5=81-100%) | 5 (5=81-100%) | 5 (5=81-100%) | 4 (4=61-80%) | 5 (5=81-100%) | 5 (5=81-100%) | 5 (5=81-100%) | 5 (5=81-100%) |
| Cc1cc(Cn2cc(C(F)(F)F)nc2-c2ccc(Cl)nc2)nn1C [Compound 1.044] | 1 (1=0-20%) | 4 (4=61-80%) | 4 (4=61-80%) | 4 (4=61-80%) | 1 (1=0-20%) | 5 (5=81-100%) | 5 (5=81-100%) | 1 (1=0-20%) |
| Cn1ccc(Cn2cc(C(F)(F)F)nc2-c2ccc(Cl)nc2)n1 [Compound 1.045] | 1 (1=0-20%) | 5 (5=81-100%) | 5 (5=81-100%) | 4 (4=61-80%) | 1 (1=0-20%) | 5 (5=81-100%) | 5 (5=81-100%) | 5 (5=81-100%) |
| CCc1cc(Cn2cc(C(F)(F)F)nc2-c2ccc(Cl)nc2)no1 [Compound 1.046] | 4 (4=61-80%) | 5 (5=81-100%) | 5 (5=81-100%) | 4 (4=61-80%) | 5 (5=81-100%) | 5 (5=81-100%) | 5 (5=81-100%) | 5 (5=81-100%) |
| FC(F)n1ccc(Cn2cc(C(F)(F)F)nc2-c2ccc(Cl)nc2)n1 [Compound 1.051] | 1 (1=0-20%) | 5 (5=81-100%) | 5 (5=81-100%) | 4 (4=61-80%) | 1 (1=0-20%) | 5 (5=81-100%) | 5 (5=81-100%) | 5 (5=81-100%) |
| Cn1cc(Cn2cc(C(F)(F)F)nc2-c2ccc(Cl)nc2)nn1 [Compound 1.057] | 4 (4=61-80%) | 4 (4=61-80%) | 4 (4=61-80%) | 4 (4=61-80%) | 4 (4=61-80%) | 5 (5=81-100%) | 5 (5=81-100%) | 5 (5=81-100%) |
| FC(F)c1cc(Cn2cc(C(F)(F)F)nc2-c2ccc(Cl)nc2)no1 [Compound 1.059] | 5 (5=81-100%) | 5 (5=81-100%) | 5 (5=81-100%) | 5 (5=81-100%) | 5 (5=81-100%) | 5 (5=81-100%) | 5 (5=81-100%) | 5 (5=81-100%) |
| CCn1ccc(Cn2cc(C(F)(F)F)nc2-c2ccc(Cl)nc2)n1 [Compound 1.063] | 1 (1=0-20%) | 5 (5=81-100%) | 5 (5=81-100%) | 3 (3=41-60%) | 1 (1=0-20%) | 5 (5=81-100%) | 5 (5=81-100%) | 5 (5=81-100%) |
| Cc1nnc(Cn2cc(C(F)(F)F)nc2-c2ccc(Cl)nc2)s1 [Compound 1.065] | 1 (1=0-20%) | 5 (5=81-100%) | 5 (5=81-100%) | 1 (1=0-20%) | 1 (1=0-20%) | 5 (5=81-100%) | 5 (5=81-100%) | 5 (5=81-100%) |
| Cn1nnc(Cn2cc(C(F)(F)F)nc2-c2ccc(Cl)nc2)c1C(F)F [Compound 1.070] | 1 (1=0-20%) | 4 (4=61-80%) | 4 (4=61-80%) | 4 (4=61-80%) | 1 (1=0-20%) | 5 (5=81-100%) | 5 (5=81-100%) | 4 (4=61-80%) |
